# The supplement of paper PMC10307832
# Columns and labels:
# Assay in all cases: relative viability (nuclei count vs DMSO), 5 days (fraction); higher = more cells survive
# [1] = compound: CCn1c(-c2nonc2N)nc2cnc(Oc3cccc(NC(=O)c4ccc(OCCN5CCOCC5)cc4)c3)cc21 + CC1(C)CCC(c2ccc(Cl)cc2)=C(CN2CCN(c3ccc(C(=O)NS(=O)(=O)c4ccc(N[C@H](CCN5CCOCC5)CSc5ccccc5)c(S(=O)(=O)C(F)(F)F)c4)cc3)CC2)C1 [Navitoclax] (partner 0.5 µM)
# Method in brief: (§1)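 For relative viability, nuclei counts in treated wells were divided by those in vehicle wells. Lung cancer cell lines had been pin-tool dosed in 1536-well plates the day after seeding and cultured for 5 days, then fixed and stained in one step (final 0.05% Triton X-100, 1% formaldehyde, 1 ug/ml Hoechst) and imaged at 4×. Doses were one drug alone or a fixed anchor-drug dose plus five library-drug doses (not always all listed) in √10 steps, and values are duplicate-plate medians.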
# Mirin + Linsitinib = compound: N=C1NC(=O)/C(=C/c2ccc(O)cc2)S1 [Mirin] + C[C@]1(O)C[C@@H](c2nc(-c3ccc4ccc(-c5ccccc5)nc4c3)c3c(N)nccn32)C1 [Linsitinib] (partner 1 µM)
# Method in brief: as §1
# Mirin + Pemetrexed = compound: N=C1NC(=O)/C(=C/c2ccc(O)cc2)S1 [Mirin] + Nc1nc2[nH]cc(CCc3ccc(C(=O)N[C@@H](CCC(=O)O)C(=O)O)cc3)c2c(=O)[nH]1 [Pemetrexed] (partner 0.2 µM)
# Method in brief: as §1
# Mirin + Decitabine = compound: N=C1NC(=O)/C(=C/c2ccc(O)cc2)S1 [Mirin] + Nc1ncn([C@H]2C[C@H](O)[C@@H](CO)O2)c(=O)n1 [Decitabine] (partner 2 µM)
# Method in brief: as §1
cell line,measurement,setting,value
UMC-11,relative viability,[1]; first compound 0.04 µM,0.349
same,relative viability,[1]; first compound 0.1265 µM,0.314
same,relative viability,[1]; first compound 0.4 µM,0.313
same,relative viability,[1]; first compound 1.265 µM,0.151
same,relative viability,[1]; first compound 4 µM,0.144
same,relative viability,Mirin + Linsitinib; first compound 0.25 µM,1
same,relative viability,Mirin + Linsitinib; first compound 0.7906 µM,0.963
same,relative viability,Mirin + Linsitinib; first compound 2.5 µM,1.07
same,relative viability,Mirin + Linsitinib; first compound 7.906 µM,0.803
same,relative viability,Mirin + Linsitinib; first compound 25 µM,0.66
same,relative viability,Mirin + Pemetrexed; first compound 0.25 µM,0.787
same,relative viability,Mirin + Pemetrexed; first compound 0.7906 µM,0.74
same,relative viability,Mirin + Pemetrexed; first compound 2.5 µM,0.92
same,relative viability,Mirin + Pemetrexed; first compound 7.906 µM,0.691
same,relative viability,Mirin + Pemetrexed; first compound 25 µM,0.568
same,relative viability,Mirin + Decitabine; first compound 0.25 µM,0.533
same,relative viability,Mirin + Decitabine; first compound 2.5 µM,0.572
same,relative viability,Mirin + Decitabine; first compound 7.906 µM,0.54
same,relative viability,Mirin + Decitabine; first compound 25 µM,0.418
